Data from ChEMBL document CHEMBL3885861, “Open TG-GATES”.

Organism: Rattus norvegicus
Assay: Open TG-GATES - Regimen: Single
Assay type: toxicity, organism-based, Sprague-Dawley
Parameters: regimen Single, gender Male, age 6 weeks
Details: in vivo, po, route gavage; for APTT / Bas / Eos / Fbg / Hb / Ht / Lym / MCH / MCHC / MCV / Mono / Neu / PT / Plat / RBC / Ret / WBC: tissue Blood; for KIDNEY_L / KIDNEY_R / KIDNEY_TOTAL: tissue Kidney; for LIVER: tissue Liver; for ALP / ALT / AST / BUN / CRE / Ca / Cl / DBIL / GLC / IP / K / LDH / Na / PL / RALB / TBIL / TC / TP / gamma-GTP: tissue Plasma
[1] = 5 mg/kg, 3 h, dose level Middle
[2] = 5 mg/kg, 6 h, dose level Middle
[3] = 5 mg/kg, 9 h, dose level Middle

With `O=P1(N(CCCl)CCCl)NCCCO1` (stereo not given) [CYCLOPHOSPHAMIDE ANHYDROUS] the TERMINAL_BW (2 mg/kg, 24 h, dose level Low) was 197.9 g, the APTT (2 mg/kg, 24 h, dose level Low) was 22 s and the Bas (2 mg/kg, 24 h, dose level Low) was 0%. It also gave an Eos (2 mg/kg, 24 h, dose level Low) of 1%, a Fbg (2 mg/kg, 24 h, dose level Low) of 284.2 mg/dL and a Hb (2 mg/kg, 24 h, dose level Low) of 13.3 g/dL. For the same compound, the Ht (2 mg/kg, 24 h, dose level Low) was 39.7%, the Lym (2 mg/kg, 24 h, dose level Low) was 82% and the MCH (2 mg/kg, 24 h, dose level Low) was 21.1 pg. For the same compound, the MCHC (2 mg/kg, 24 h, dose level Low) was 33.5%, the MCV (2 mg/kg, 24 h, dose level Low) was 63 fL and the Mono (2 mg/kg, 24 h, dose level Low) was 2.2%. It also gave a Neu (2 mg/kg, 24 h, dose level Low) of 14.2%, a PT (2 mg/kg, 24 h, dose level Low) of 17 s and a Plat (2 mg/kg, 24 h, dose level Low) of 117.1 x10_4/uL. The RBC (2 mg/kg, 24 h, dose level Low) was 630.8 x10_4/ul, the Ret (2 mg/kg, 24 h, dose level Low) was 7% and the WBC (2 mg/kg, 24 h, dose level Low) was 74.3 x10_2/uL. The KIDNEY_L (2 mg/kg, 24 h, dose level Low) was 0.9 g, the KIDNEY_R (2 mg/kg, 24 h, dose level Low) was 0.9 g and the KIDNEY_TOTAL (2 mg/kg, 24 h, dose level Low) was 1.8 g. It also gave an LIVER (2 mg/kg, 24 h, dose level Low) of 9.1 g, an ALP (2 mg/kg, 24 h, dose level Low) of 1746.6 IU/L and an ALT (2 mg/kg, 24 h, dose level Low) of 44.6 IU/L. For the same compound, the AST (2 mg/kg, 24 h, dose level Low) was 72.8 IU/L, the BUN (2 mg/kg, 24 h, dose level Low) was 17.4 mg/dL and the CRE (2 mg/kg, 24 h, dose level Low) was 0.2 mg/dL. For the same compound, the Ca (2 mg/kg, 24 h, dose level Low) was 10.9 mg/dL, the Cl (2 mg/kg, 24 h, dose level Low) was 106 meq/L and the DBIL (2 mg/kg, 24 h, dose level Low) was 0 mg/dL. For the same compound, the GLC (2 mg/kg, 24 h, dose level Low) was 179.6 mg/dL, the IP (2 mg/kg, 24 h, dose level Low) was 7.5 mg/dL and the K (2 mg/kg, 24 h, dose level Low) was 4.5 meq/L. For the same compound, the LDH (2 mg/kg, 24 h, dose level Low) was 207.2 IU/L, the Na (2 mg/kg, 24 h, dose level Low) was 142.4 meq/L and the PL (2 mg/kg, 24 h, dose level Low) was 139.6 mg/dL. For the same compound, the RALB (2 mg/kg, 24 h, dose level Low) was 3 g/dL, the TBIL (2 mg/kg, 24 h, dose level Low) was 0.006 mg/dL and the TC (2 mg/kg, 24 h, dose level Low) was 70.6 mg/dL. It also gave a TP (2 mg/kg, 24 h, dose level Low) of 5.5 g/dL, a gamma-GTP (2 mg/kg, 24 h, dose level Low) of 0.8 IU/L and a TERMINAL_BW [1] of 186.6 g. The APTT [1] was 22.8 s, the Bas [1] was 0% and the Eos [1] was 0.8%. The Fbg [1] was 290.2 mg/dL, the Hb [1] was 12.9 g/dL and the Ht [1] was 39%. The Lym [1] was 83.6%, the MCH [1] was 21.1 pg and the MCHC [1] was 33.2%. It also gave an MCV [1] of 63.7 fL, a Mono [1] of 1.4% and a Neu [1] of 13.6%. It also gave a PT [1] of 15.6 s, a Plat [1] of 113 x10_4/uL and an RBC [1] of 611.6 x10_4/ul. It also gave a Ret [1] of 8.1%, a WBC [1] of 60.2 x10_2/uL and a KIDNEY_L [1] of 0.8 g. It also gave a KIDNEY_R [1] of 0.9 g, a KIDNEY_TOTAL [1] of 1.7 g and an LIVER [1] of 8.3 g. The ALP [1] was 1552.4 IU/L, the ALT [1] was 44.4 IU/L and the AST [1] was 73.4 IU/L. For the same compound, the BUN [1] was 11.2 mg/dL, the CRE [1] was 0.1 mg/dL and the Ca [1] was 10.6 mg/dL. The Cl [1] was 106.4 meq/L, the DBIL [1] was 0 mg/dL and the GLC [1] was 180.6 mg/dL. The IP [1] was 9 mg/dL, the K [1] was 4 meq/L and the LDH [1] was 175.2 IU/L. The Na [1] was 143.8 meq/L, the PL [1] was 137.6 mg/dL and the RALB [1] was 3 g/dL. It also gave a TBIL [1] of 0.034 mg/dL, a TC [1] of 81.4 mg/dL and a TP [1] of 5.4 g/dL. For the same compound, the gamma-GTP [1] was 1 IU/L, the TERMINAL_BW [2] was 189.8 g and the APTT [2] was 22.5 s. For the same compound, the Bas [2] was 0%, the Eos [2] was 0.4% and the Fbg [2] was 311.4 mg/dL. The Hb [2] was 13.1 g/dL, the Ht [2] was 39.4% and the Lym [2] was 78%. It also gave an MCH [2] of 21.1 pg, an MCHC [2] of 33.2% and an MCV [2] of 63.6 fL. It also gave a Mono [2] of 2.8%, a Neu [2] of 17.8% and a PT [2] of 16.1 s. For the same compound, the Plat [2] was 130.3 x10_4/uL, the RBC [2] was 618.8 x10_4/ul and the Ret [2] was 7.9%. For the same compound, the WBC [2] was 86.9 x10_2/uL, the KIDNEY_L [2] was 0.9 g and the KIDNEY_R [2] was 0.9 g. It also gave a KIDNEY_TOTAL [2] of 1.8 g, an LIVER [2] of 8.4 g and an ALP [2] of 1359.6 IU/L. It also gave an ALT [2] of 39.6 IU/L, an AST [2] of 66.8 IU/L and a BUN [2] of 8.2 mg/dL. The CRE [2] was 0.1 mg/dL, the Ca [2] was 10.7 mg/dL and the Cl [2] was 107.6 meq/L. For the same compound, the DBIL [2] was 0 mg/dL, the GLC [2] was 172 mg/dL and the IP [2] was 9.5 mg/dL. It also gave a K [2] of 4.1 meq/L, an LDH [2] of 162.6 IU/L and a Na [2] of 143.2 meq/L. It also gave a PL [2] of 139.4 mg/dL, an RALB [2] of 2.8 g/dL and a TBIL [2] of 0.03 mg/dL. The TC [2] was 77.8 mg/dL, the TP [2] was 5.3 g/dL and the gamma-GTP [2] was 1 IU/L. It also gave a TERMINAL_BW [3] of 193 g, an APTT [3] of 20.2 s and a Bas [3] of 0%. The Eos [3] was 1%, the Fbg [3] was 309 mg/dL and the Hb [3] was 12.6 g/dL. The Ht [3] was 37.9%, the Lym [3] was 71.6% and the MCH [3] was 21.1 pg. For the same compound, the MCHC [3] was 33.3%, the MCV [3] was 63.3 fL and the Mono [3] was 2.6%. The Neu [3] was 24.4%, the PT [3] was 16.3 s and the Plat [3] was 115.7 x10_4/uL. It also gave an RBC [3] of 599.6 x10_4/ul and a Ret [3] of 8.6%.
